Laboratory results reported in patent US6031073A, “Cyclic polypeptides comprising a thioether linkage and methods for their preparation” (La Jolla Pharmaceutical Company, priority 1997, dated 2000).
Read-outs that look alike come from different tables or passages of the source. Numbered stars: 1 amine (or outer) side, 2 acyl side, 3 side chain; on linkers, the order of the positions; unused ones are H or OH. Bridge positions count the residues as written; N and C are the ends. Square brackets hold non-standard residues; d marks the D form. Peptide text beside a SMILES is read from it. Abu(4-yl) = O=C([C@H](CC[*:3])N[*:1])[*:2]

Tests used:
[1] = thioether bond
[2] = target: anticardiolipin antibody (serum of patient ACA-6501); assay: competitive ELISA, binding of patient ACA-6501 serum to cardiolipin/β2-GPI coated plate; parameters: species or system human; settings: amount of peptide that inhibited the human serum's binding by 50%; serum of patient ACA-6501 (GPL score 1500)
Protocol: The binding affinities of a number of the thioether cyclic polypeptides of the present invention to anticardiolipin antibody were determined by a competitive ELISA (i.e., enzyme-linked immunosorbent assay) and compared with binding affinities of the corresponding disulfide cyclic polypeptides (e.g., 3G3, 2G3, and G3).
Of 96 wells of a flat-bottom Immulon I microtiter plate (Dynatech Labs, Alexandria, Va.), 94 wells were coated with […] cardiolipin per well in 30 mL, of ethanol. The remaining two wells were used as controls and each received 30 mL, of ethanol. After overnight evaporation at 4° C., the plate was blocked for 2 hours at room temperature with 200 mL of 5% (w/v) fish gelatin in phosphate buffered saline (i.e., PBS, 0.15 M NaCl and 0.01 M Na2 HPO4 at pH 7.2). The plate was washed five times in Tris buffered saline (i.e., TBS, 0.15 M NaCl and 0.05 M Tris-HCl at pH 8.5). Then, β2 -glycoprotein I (i.e., β2 -GPI) was added as […] of 2.3% (v/v) IgG-depleted human serum (Sigma Chemical Co.) and incubated for 2 hours at room temperature.
During this incubation, peptide solutions (around 2 mg/mL) were prepared by dissolving thioether cyclic peptides in 3% fish gelatin in TBS. The serums of patient ACA-6501, who has a GPL (i.e., IgG Phospholipid) score of 1500, and patient ACA-6701, who has a GPL score of 102, were diluted about 40-fold in 3% fish gelatin in TBS-PBS (1:1). Variable amounts of each of peptides were combined with 22 mL of each of the diluted human serums and then made up to the final volume of 220 mL with 3% fish gelatin in TBS-PBS (1:1). For each peptide, at least four peptide concentrations were employed and each data point was determined in duplicate.
After 5 washes with TFBS, 100 mL of the peptide/human serum solution was added and the microplate was agitated at 40 rpm in an orbital shaker (American Scientific, Rotator V) for one hour at room temperature. The plate was washed extensively with TBS (5 times) and 100 mL of diluted (1/1000) alkaline phosphatase-conjugated goat anti-human IgG (Zymed, South San Francisco, Calif.) in 0.5% (w/v) BSA-TBS was added to each well (i.e., bovine serum albumin, BSA). The plate was then incubated for one hour at room temperature followed by addition of […]/well of PPMP solution (3 g/L phenolphthalein monophosphate plus 26.7 g/L 2-amino-2-methyl-1-propanol in water). The plate was allowed to develop at room temperature for 21 min and the reaction was stopped by adding 50 mL of 0.2 M Na2 HPO4 (Mallinckrodt) to each well. Blanks consisted of protein-coated wells that received similar treatment except human serum was not added to these wells. The plate was read at 550 nm using a microplate reader (Bio-Tek Instruments, Model EL 311).
Absorbance vs. amount of peptide added was plotted using Graph Pad Prism (Graph Pad Software, Inc.). The amount of peptide that inhibited the human serum's binding by 50%, known as IC50, was calculated from the graph at the intersection of half-maximal absorbance with amount of peptide added.

[3] = from H-Gly-Pro-Ala(3-Cl)-Leu-Gly-Val-Leu-Gly-Lys-Leu-Hcy-Pro-Gly-OH, 29-membered ring, Na2CO3 (1 mg/mL, pH 10.5), ACN/H2O 1:1, 25.0 °C

Compound: CC[C@H](C)[C@@H]1NC(=O)[C@H](CC(C)C)NC(=O)[C@@H](NC(=O)[C@@H]2CCCN2C(=O)CN)CSC[C@@H](C(N)=O)NC(=O)[C@H](CCCNC(=N)N)NC(=O)[C@H](CC(=O)O)NC(=O)[C@@H]2CCCN2C(=O)[C@H](C)NC(=O)[C@H](CC(C)C)NC1=O [CB10-MMTE]
- ring closure, yield after HPLC ([1]; from H-Gly-Pro-Ala(3-Br)-Leu-Ile-Leu-Ala-Pro-Asp-Arg-Cys-NH2, 28-membered ring, Na2CO3 (pH 10.5), H2O, 0.15 mM): 27%

Compound: CC(C)C[C@@H]1NC(=O)[C@@H](NC(=O)[C@@H]2CCCN2C(=O)CN)CSCC[C@@H](C(=O)N2CCC[C@H]2C(=O)NCC(=O)O)NC(=O)[C@H](CC(C)C)NC(=O)[C@H](CCCCN)NC(=O)CNC(=O)[C@H](CC(C)C)NC(=O)[C@H](C(C)C)NC(=O)CNC1=O [d-2G3-METE]
- ring closure, yield after HPLC [1, 3]: 16%

Compound: CC(C)C[C@@H]1NC(=O)[C@@H](NC(=O)[C@@H]2CCCN2C(=O)CNC(=O)[C@H](C)N)CCSC[C@@H](C(=O)N2CCC[C@H]2C(=O)NCC(=O)O)NC(=O)[C@H](CC(C)C)NC(=O)[C@H](CCCCN)NC(=O)CNC(=O)[C@H](CC(C)C)NC(=O)[C@H](C(C)C)NC(=O)CNC1=O [3G3-EMTE] (H-AGP[Abu(4-yl)]LGVLGKLCPG-OH; thioether 4-12; N-terminus and C-terminus assumed)
- IC50 [2]: ~1120 µM

Compound: CC(C)C[C@@H]1NC(=O)[C@@H](NC(=O)[C@@H]2CCCN2C(=O)CN)CCSC[C@@H](C(=O)N2CCC[C@H]2C(=O)NCC(=O)O)NC(=O)[C@H](CC(C)C)NC(=O)[C@H](CCCCN)NC(=O)CNC(=O)[C@H](CC(C)C)NC(=O)[C@H](C(C)C)NC(=O)CNC1=O [2G3-EMTE]
- ring closure, yield after HPLC ([1]; from H-Gly-Pro-Abu(4-Cl)-Leu-Gly-Val-Leu-Gly-Lys-Leu-Cys-Pro-Gly-OH, 29-membered ring, Na2CO3 (1 mg/mL, pH 10.5), ACN/H2O 1:1, 25.0 °C): 84%

Compound: CC(C)C[C@@H]1NC(=O)[C@@H](NC(=O)[C@@H]2CCCN2C(=O)CN)CSC[C@@H](C(=O)N2CCC[C@H]2C(=O)NCC(=O)O)NC(=O)[C@H](CC(C)C)NC(=O)[C@H](CCCCN)NC(=O)CNC(=O)[C@H](CC(C)C)NC(=O)[C@H](C(C)C)NC(=O)CNC1=O [2G3-MMTE]
- ring closure, yield after HPLC ([1]; from H-Gly-Pro-Ala(3-Cl)-Leu-Gly-Val-Leu-Gly-Lys-Leu-Cys-Pro-Gly-OH, 28-membered ring, Na2CO3 (1 mg/mL, pH 10.5), ACN/H2O 1:1, 25.0 °C): 87%

Compound: CC(C)C[C@@H]1NC(=O)[C@H](CCCCN)NC(=O)CNC(=O)[C@H](CC(C)C)NC(=O)[C@H](C(C)C)NC(=O)CNC(=O)[C@H](CC(C)C)NC(=O)[C@@H](N)CCSCC[C@@H](C(N)=O)NC1=O [G3-EETE]
- ring closure, yield after HPLC ([1]; from H-Abu(4-Cl)-Leu-Gly-Val-Leu-Gly-Lys-Leu-Hcy-NH2, 30-membered ring, Na2CO3 (1 mg/mL, pH 10.5), ACN/H2O 1:1, 25.0 °C): 48%

Compound: CC(C)C[C@@H]1NC(=O)[C@H](CCCCN)NC(=O)CNC(=O)[C@H](CC(C)C)NC(=O)[C@H](C(C)C)NC(=O)CNC(=O)[C@H](CC(C)C)NC(=O)[C@@H](N)CSCC[C@@H](C(N)=O)NC1=O [G3-METE]
- ring closure, yield after HPLC ([1]; from H-Ala(3-Cl)-Leu-Gly-Val-Leu-Gly-Lys-Leu-Hcy-NH2, 29-membered ring, Na2CO3 (1 mg/mL, pH 10.5), ACN/H2O 1:1, 25.0 °C): 52%

Compound: CC(C)C[C@@H]1NC(=O)[C@@H](NC(=O)[C@@H]2CCCN2C(=O)CNC(=O)[C@H](C)N)CSC[C@@H](C(=O)N2CCC[C@H]2C(=O)NCC(=O)O)NC(=O)[C@H](CC(C)C)NC(=O)[C@H](CCCCN)NC(=O)CNC(=O)[C@H](CC(C)C)NC(=O)[C@H](C(C)C)NC(=O)CNC1=O [3G3-MMTE]
- ring closure, yield after HPLC ([1]; from H-Ala-Gly-Pro-Ala(3-Cl)-Leu-Gly-Val-Leu-Gly-Lys-Leu-Cys-Pro-Gly-OH, 28-membered ring, Na2CO3 (1 mg/mL, pH 10.5), ACN/H2O 1:1, 25.0 °C): 89%

Compound: CC(C)C[C@@H]1NC(=O)[C@H](CCCCN)NC(=O)CNC(=O)[C@H](CC(C)C)NC(=O)[C@H](C(C)C)NC(=O)CNC(=O)[C@H](CC(C)C)NC(=O)[C@@H](N)CCSC[C@@H](C(N)=O)NC1=O [G3-EMTE]
- ring closure, yield after HPLC ([1]; from H-Abu(4-Cl)-Leu-Gly-Val-Leu-Gly-Lys-Leu-Cys-NH2, 29-membered ring, Na2CO3 (1 mg/mL, pH 10.5), ACN/H2O 1:1, 25.0 °C): 51%

Compound: CC(C)C[C@@H]1NC(=O)[C@@H](NC(=O)[C@@H]2CCCN2C(=O)CN)CSCC[C@@H](C(=O)N2CCC[C@H]2C(=O)NCC(=O)O)NC(=O)[C@H](CC(C)C)NC(=O)[C@H](CCCCN)NC(=O)CNC(=O)[C@H](CC(C)C)NC(=O)[C@H](C(C)C)NC(=O)CNC1=O [l-2G3-METE]
- ring closure, yield after HPLC [1, 3]: 29%

Compound: CC(C)C[C@@H]1NC(=O)[C@@H](NC(=O)[C@@H]2CCCN2C(=O)CN)CCSCC[C@@H](C(=O)N2CCC[C@H]2C(=O)NCC(=O)O)NC(=O)[C@H](CC(C)C)NC(=O)[C@H](CCCCN)NC(=O)CNC(=O)[C@H](CC(C)C)NC(=O)[C@H](C(C)C)NC(=O)CNC1=O [2G3-EETE]
- ring closure, yield after HPLC ([1]; from H-Gly-Pro-Abu(4-Cl)-Leu-Gly-Val-Leu-Gly-Lys-Leu-Hcy-Pro-Gly-OH, 30-membered ring, Na2CO3 (1 mg/mL, pH 10.5), ACN/H2O 1:1, 25.0 °C): 75%

Compound: CC(C)C[C@@H]1NC(=O)[C@@H](NC(=O)[C@@H]2CCCN2C(=O)CNC(=O)[C@H](C)N)CCSC[C@@H](C(=O)N2CCC[C@H]2C(=O)NCC(=O)O)NC(=O)[C@H](CC(C)C)NC(=O)[C@H](CCCCN)NC(=O)CNC(=O)[C@H](CC(C)C)NC(=O)[C@H](C(C)C)NC(=O)CNC1=O [3G3-EMTE]
- ring closure, yield after HPLC ([1]; from H-Ala-Gly-Pro-Abu(4-Cl)-Leu-Gly-Val-Leu-Gly-Lys-Leu-Cys-Pro-Gly-OH, 29-membered ring, Na2CO3 (1 mg/mL, pH 10.5), ACN/H2O 1:1, 0.71 mM, 25.0 °C): 94%

Compound: CC(C)C[C@@H]1NC(=O)[C@@H](NC(=O)[C@@H]2CCCN2C(=O)CNC(=O)[C@H](C)NC(=O)OCC2c3ccccc3-c3ccccc32)CCSC[C@@H](C(=O)N2CCC[C@H]2C(=O)NCC(=O)O)NC(=O)[C@H](CC(C)C)NC(=O)[C@H](CCCCN)NC(=O)CNC(=O)[C@H](CC(C)C)NC(=O)[C@H](C(C)C)NC(=O)CNC1=O [3G3-EMTE]
- ring closure, yield after HPLC ([1]; from Fmoc-Ala-Gly-Pro-Abu(4-Cl)-Leu-Gly-Val-Leu-Gly-Lys-Leu-Cys-Pro-Gly-OH, 29-membered ring, Na2CO3 (1 mg/mL, pH 10.5), ACN/H2O 1:1, 0.63 mM, 25.0 °C, 2 steps): 33%

Compound: CC(C)C[C@@H]1NC(=O)[C@@H](NC(=O)[C@@H]2CCCN2C(=O)CNC(=O)[C@H](C)NC(=O)OCC2c3ccccc3-c3ccccc32)CCSC[C@@H](C(=O)N2CCC[C@H]2C(=O)NCC(=O)O)NC(=O)[C@H](CC(C)C)NC(=O)[C@H](CCCCN)NC(=O)CNC(=O)[C@H](CC(C)C)NC(=O)[C@H](C(C)C)NC(=O)CNC1=O [N^α -Fmoc-3G3-EMTE]
- ring closure, yield after HPLC ([1]; from Fmoc-Ala-Gly-Pro-Abu(4-Cl)-Leu-Gly-Val-Leu-Gly-Lys-Leu-Cys-Pro-Gly-OH, 29-membered ring, Na2CO3 (1 mg/mL, pH 10.5), ACN/H2O 1:1, 0.63 mM, 25.0 °C): 19%

Compound: CC(C)C[C@@H]1NC(=O)[C@H](CCCCN)NC(=O)CNC(=O)[C@H](CC(C)C)NC(=O)[C@H](C(C)C)NC(=O)CNC(=O)[C@H](CC(C)C)NC(=O)[C@@H](N)CSC[C@@H](C(N)=O)NC1=O [G3-MMTE]
- ring closure, yield after HPLC ([1]; from H-Ala(3-Cl)-Leu-Gly-Val-Leu-Gly-Lys-Leu-Cys-NH2, 28-membered ring, Na2CO3 (1 mg/mL, pH 10.5), ACN/H2O 1:1, 25.0 °C): 49%

Compound: CC(C)C[C@@H]1NC(=O)[C@@H](NC(=O)[C@@H]2CCCN2C(=O)CN)CSCC[C@@H](C(=O)N2CCC[C@H]2C(=O)NCC(=O)O)NC(=O)[C@H](CC(C)C)NC(=O)[C@H](CCCCN)NC(=O)CNC(=O)[C@H](CC(C)C)NC(=O)[C@H](C(C)C)NC(=O)CNC1=O [2G3-METE]
- ring closure, yield after HPLC ([1]; from H-Gly-Pro-Cys-Leu-Gly-Val-Leu-Gly-Lys-Leu-Abu(4-Cl)-Pro-Gly-OH, 29-membered ring, Na2CO3 (1 mg/mL, pH 10.5), ACN/H2O 1:1, 25.0 °C): 36%
